# Source: PubChem BioAssay (NCI)
#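 The concentration for 50% growth inhibition is given as GI50. At the TGI there is no net growth.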
# Tests used:
# Assay in all cases: DTP human tumour cell line panel, 384-well format
# SF-295 CNS = system: SF-295 CNS
# UACC-62 melanoma = system: UACC-62 melanoma
# COLO 205 colon = system: COLO 205 colon
# NCI-H23 lung = system: NCI-H23 lung
# HT29 colon = system: HT29 colon
# K-562 leukemia = system: K-562 leukemia
# LOX IMVI melanoma = system: LOX IMVI melanoma
# UO-31 renal = system: UO-31 renal
# MOLT-4 leukemia = system: MOLT-4 leukemia
# MDA-MB-231 breast = system: MDA-MB-231 breast
# SN12C renal = system: SN12C renal
# KM12 colon = system: KM12 colon
# HS 578T breast = system: HS 578T breast
# NCI-H226 lung = system: NCI-H226 lung
# A549 NSCLC = system: A549 NSCLC
# 786-0 renal = system: 786-0 renal
# HCC-2998 colon = system: HCC-2998 colon
# SR leukemia = system: SR leukemia
# NCI-H322M lung = system: NCI-H322M lung
# UACC-257 melanoma = system: UACC-257 melanoma
# SNB-19 CNS = system: SNB-19 CNS
# NCI/ADR-RES ovarian = system: NCI/ADR-RES ovarian
# M14 melanoma = system: M14 melanoma
# EKVX NSCLC = system: EKVX NSCLC
# NCI-H522 lung = system: NCI-H522 lung
# OVCAR-8 ovarian = system: OVCAR-8 ovarian
# SW-620 colon = system: SW-620 colon
# HOP-92 NSCLC = system: HOP-92 NSCLC
# HOP-62 NSCLC = system: HOP-62 NSCLC
# RXF 393 renal = system: RXF 393 renal
# CAKI-1 renal = system: CAKI-1 renal
# MDA-MB-468 breast = system: MDA-MB-468 breast
# NCI-H460 NSCLC = system: NCI-H460 NSCLC
# HL-60(TB) leukemia = system: HL-60(TB) leukemia
# A498 renal = system: A498 renal
# SNB-75 CNS = system: SNB-75 CNS
# TK-10 renal = system: TK-10 renal
# DU-145 prostate = system: DU-145 prostate
# SF-268 CNS = system: SF-268 CNS
# OVCAR-5 ovarian = system: OVCAR-5 ovarian
# SF-539 CNS = system: SF-539 CNS
# OVCAR-3 ovarian = system: OVCAR-3 ovarian
# SK-MEL-5 melanoma = system: SK-MEL-5 melanoma
# SK-MEL-28 melanoma = system: SK-MEL-28 melanoma
# IGROV1 ovarian = system: IGROV1 ovarian
# HCT-15 colon = system: HCT-15 colon
# OVCAR-4 ovarian = system: OVCAR-4 ovarian
# ACHN renal = system: ACHN renal
# MALME-3M melanoma = system: MALME-3M melanoma
# BT-549 breast = system: BT-549 breast
# T-47D breast = system: T-47D breast
# RPMI-8226 leukemia = system: RPMI-8226 leukemia
# MDA-MB-435 melanoma = system: MDA-MB-435 melanoma
# SK-OV-3 ovarian = system: SK-OV-3 ovarian
# CCRF-CEM leukemia = system: CCRF-CEM leukemia
# PC-3 prostate = system: PC-3 prostate
# MCF7 breast = system: MCF7 breast
compound,measurement,setting,value
CC(C)(O)c1coc(S(=O)(=O)/N=C(\O)Nc2c3c(cc4c2CCC4)CCC3)c1,GI50,SF-295 CNS,> 100 µM
same,TGI,SF-295 CNS,> 100 µM
same,GI50,UACC-62 melanoma,> 100 µM
same,TGI,UACC-62 melanoma,> 100 µM
same,GI50,COLO 205 colon,> 100 µM
same,TGI,COLO 205 colon,> 100 µM
same,GI50,NCI-H23 lung,> 100 µM
same,TGI,NCI-H23 lung,> 100 µM
same,GI50,HT29 colon,> 100 µM
same,TGI,HT29 colon,> 100 µM
same,GI50,K-562 leukemia,> 100 µM
same,TGI,K-562 leukemia,> 100 µM
same,GI50,LOX IMVI melanoma,> 100 µM
same,TGI,LOX IMVI melanoma,> 100 µM
same,GI50,UO-31 renal,> 100 µM
same,TGI,UO-31 renal,> 100 µM
same,GI50,MOLT-4 leukemia,> 100 µM
same,TGI,MOLT-4 leukemia,> 100 µM
same,GI50,MDA-MB-231 breast,> 100 µM
same,TGI,MDA-MB-231 breast,> 100 µM
same,GI50,SN12C renal,> 100 µM
same,TGI,SN12C renal,> 100 µM
same,GI50,KM12 colon,> 100 µM
same,TGI,KM12 colon,> 100 µM
same,GI50,HS 578T breast,> 100 µM
same,TGI,HS 578T breast,> 100 µM
same,GI50,NCI-H226 lung,> 100 µM
same,TGI,NCI-H226 lung,> 100 µM
same,GI50,A549 NSCLC,> 100 µM
same,TGI,A549 NSCLC,> 100 µM
same,GI50,786-0 renal,> 100 µM
same,TGI,786-0 renal,> 100 µM
same,GI50,HCC-2998 colon,> 100 µM
same,TGI,HCC-2998 colon,> 100 µM
same,GI50,SR leukemia,> 100 µM
same,TGI,SR leukemia,> 100 µM
same,GI50,NCI-H322M lung,> 100 µM
same,TGI,NCI-H322M lung,> 100 µM
same,GI50,UACC-257 melanoma,> 100 µM
same,TGI,UACC-257 melanoma,> 100 µM
same,GI50,SNB-19 CNS,> 100 µM
same,TGI,SNB-19 CNS,> 100 µM
same,GI50,NCI/ADR-RES ovarian,> 100 µM
same,TGI,NCI/ADR-RES ovarian,> 100 µM
same,GI50,M14 melanoma,> 100 µM
same,TGI,M14 melanoma,> 100 µM
same,GI50,EKVX NSCLC,> 100 µM
same,TGI,EKVX NSCLC,> 100 µM
same,GI50,NCI-H522 lung,> 100 µM
same,TGI,NCI-H522 lung,> 100 µM
same,GI50,OVCAR-8 ovarian,> 100 µM
same,TGI,OVCAR-8 ovarian,> 100 µM
same,GI50,SW-620 colon,> 100 µM
same,TGI,SW-620 colon,> 100 µM
same,GI50,HOP-92 NSCLC,> 100 µM
same,TGI,HOP-92 NSCLC,> 100 µM
same,GI50,HOP-62 NSCLC,> 100 µM
same,TGI,HOP-62 NSCLC,> 100 µM
same,GI50,RXF 393 renal,> 100 µM
same,TGI,RXF 393 renal,> 100 µM
same,GI50,CAKI-1 renal,> 100 µM
same,TGI,CAKI-1 renal,> 100 µM
same,GI50,MDA-MB-468 breast,> 100 µM
same,TGI,MDA-MB-468 breast,> 100 µM
same,GI50,NCI-H460 NSCLC,> 100 µM
same,TGI,NCI-H460 NSCLC,> 100 µM
same,GI50,HL-60(TB) leukemia,> 100 µM
same,TGI,HL-60(TB) leukemia,> 100 µM
same,GI50,A498 renal,> 100 µM
same,TGI,A498 renal,> 100 µM
same,GI50,SNB-75 CNS,> 100 µM
same,TGI,SNB-75 CNS,> 100 µM
same,GI50,TK-10 renal,> 100 µM
same,TGI,TK-10 renal,> 100 µM
same,GI50,DU-145 prostate,> 100 µM
same,TGI,DU-145 prostate,> 100 µM
same,GI50,SF-268 CNS,> 100 µM
same,TGI,SF-268 CNS,> 100 µM
same,GI50,OVCAR-5 ovarian,> 100 µM
same,TGI,OVCAR-5 ovarian,> 100 µM
same,GI50,SF-539 CNS,> 100 µM
same,TGI,SF-539 CNS,> 100 µM
same,GI50,OVCAR-3 ovarian,> 100 µM
same,TGI,OVCAR-3 ovarian,> 100 µM
same,GI50,SK-MEL-5 melanoma,> 100 µM
same,TGI,SK-MEL-5 melanoma,> 100 µM
same,GI50,SK-MEL-28 melanoma,> 100 µM
same,TGI,SK-MEL-28 melanoma,> 100 µM
same,GI50,IGROV1 ovarian,> 100 µM
same,TGI,IGROV1 ovarian,> 100 µM
same,GI50,HCT-15 colon,> 100 µM
same,TGI,HCT-15 colon,> 100 µM
same,GI50,OVCAR-4 ovarian,> 100 µM
same,TGI,OVCAR-4 ovarian,> 100 µM
same,GI50,ACHN renal,> 100 µM
same,TGI,ACHN renal,> 100 µM
same,GI50,MALME-3M melanoma,> 100 µM
same,TGI,MALME-3M melanoma,> 100 µM
same,GI50,BT-549 breast,> 100 µM
same,TGI,BT-549 breast,> 100 µM
same,GI50,T-47D breast,> 100 µM
same,TGI,T-47D breast,> 100 µM
same,GI50,RPMI-8226 leukemia,> 100 µM
same,TGI,RPMI-8226 leukemia,> 100 µM
same,GI50,MDA-MB-435 melanoma,> 100 µM
same,TGI,MDA-MB-435 melanoma,> 100 µM
same,GI50,SK-OV-3 ovarian,> 100 µM
same,TGI,SK-OV-3 ovarian,> 100 µM
same,GI50,CCRF-CEM leukemia,> 100 µM
same,TGI,CCRF-CEM leukemia,> 100 µM
same,GI50,PC-3 prostate,> 100 µM
same,TGI,PC-3 prostate,> 100 µM
same,GI50,MCF7 breast,> 100 µM
same,TGI,MCF7 breast,> 100 µM
